Legend:
Assay in all cases: relative viability (nuclei count vs DMSO), 5 days (fraction); higher = more cells survive
RO-3306 + Bortezomib = compound: C1=CC2=C(C=CC(=C2)C=C3C(=O)NC(=NCC4=CC=CS4)S3)N=C1 [RO-3306] + CC(C)C[C@H](NC(=O)[C@H](Cc1ccccc1)NC(=O)c1cnccn1)B(O)O [Bortezomib] (partner 0.002 µM)
Procedure, shortened: (§1)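 Lung cancer cell lines in 1536-well plates were dosed by pin tool the day after seeding, either with one drug alone or with a fixed anchor-drug dose plus five library-drug doses (not always all listed) in √10 steps. After 5 days, cells were fixed and their nuclei stained in one step (final 0.05% Triton X-100, 1% formaldehyde, 1 ug/ml Hoechst), then counted on 4× images. Relative viability is the nuclei count in treated wells divided by that in vehicle wells. Values are medians of duplicate plates.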

RO-3306 + OSI-027 = compound: C1=CC2=C(C=CC(=C2)C=C3C(=O)NC(=NCC4=CC=CS4)S3)N=C1 [RO-3306] + COc1cccc2cc(-c3nc([C@H]4CC[C@H](C(=O)O)CC4)n4ncnc(N)c34)[nH]c12 [OSI-027] (partner 0.5 µM)
Procedure, shortened: as §1

[1] = compound: O=S(=O)(c1ccccc1)N(CC(F)(F)F)c1ccc(C(O)(C(F)(F)F)C(F)(F)F)cc1 + CCNC(=O)c1noc(-c2cc(C(C)C)c(O)cc2O)c1-c1ccc(CN2CCOCC2)cc1 [Luminespib] (partner 0.01 µM)
Procedure, shortened: as §1

[2] = compound: O=S(=O)(c1ccccc1)N(CC(F)(F)F)c1ccc(C(O)(C(F)(F)F)C(F)(F)F)cc1 + C[C@@H](Oc1cc(-c2cnn(C3CCNCC3)c2)cnc1N)c1c(Cl)ccc(F)c1Cl [Crizotinib] (partner 1 µM)
Procedure, shortened: as §1

[3] = compound: O=S(=O)(c1ccccc1)N(CC(F)(F)F)c1ccc(C(O)(C(F)(F)F)C(F)(F)F)cc1 + C[C@]1(O)C[C@@H](c2nc(-c3ccc4ccc(-c5ccccc5)nc4c3)c3c(N)nccn32)C1 [Linsitinib] (partner 1 µM)
Procedure, shortened: as §1

Row | Cell Line | relative viability (RO-3306 + Bortezomib; first compound 0.01 µM) | relative viability (RO-3306 + Bortezomib; first compound 0.03162 µM) | relative viability (RO-3306 + Bortezomib; first compound 0.1 µM) | relative viability (RO-3306 + Bortezomib; first compound 0.3162 µM) | relative viability (RO-3306 + Bortezomib; first compound 1 µM) | relative viability (RO-3306 + OSI-027; first compound 0.01 µM) | relative viability (RO-3306 + OSI-027; first compound 0.03162 µM) | relative viability (RO-3306 + OSI-027; first compound 0.1 µM) | relative viability (RO-3306 + OSI-027; first compound 0.3162 µM) | relative viability (RO-3306 + OSI-027; first compound 1 µM) | relative viability ([1]; first compound 0.8 µM) | relative viability ([1]; first compound 2.53 µM) | relative viability ([1]; first compound 8 µM) | relative viability ([2]; first compound 0.8 µM) | relative viability ([2]; first compound 2.53 µM) | relative viability ([2]; first compound 8 µM) | relative viability ([3]; first compound 0.8 µM) | relative viability ([3]; first compound 2.53 µM) | relative viability ([3]; first compound 8 µM)
1 | LU99A | 1.38 | 1.09 | 1.04 | 0.98 | 1.07 | 0.296 | 0.284 | 0.297 | 0.317 | 0.274 | 0.332 | 0.226 | 0.185 | 0.634 | 0.465 | 0.516 | 0.47 | 0.524 | 0.558
2 | NCI-H1975 | 0.468 | 0.358 | 0.343 | 0.417 | 0.243 | 0.959 | 0.614 | 0.655 | 0.788 | 0.613 | 0.205 | 0.201 | 0.311 | 1.03 | 1.01 | 0.919 | 1.09 | 1.16 | 0.88
3 | NCI-H2228 | 0.937 | 0.47 | 0.917 | 0.893 | 0.636 | 0.652 | 0.411 | 0.557 | 0.685 | 0.429 | 0.154 | 0.165 | 0.122 | 0.389 | 0.354 | 0.462 | 0.615 | 0.727 | 0.391
4 | NCI-H1563 | 0.921 | 0.75 | 0.787 | 0.939 | 0.753 | 0.671 | 0.733 | 0.736 | 0.735 | 0.725 | 0.545 | 0.485 | 0.551 | 0.873 | 0.742 | 0.733 | 1.2 | 1.17 | 1.06
5 | NCI-H2009 | 0.994 | 0.82 | 1 | 1.06 | 1 | 0.656 | 0.56 | 0.624 | 0.622 | 0.615 | 1 | 0.878 | 0.787 | 0.981 | 0.888 | 0.824 | 1.15 | 1.01 | 1.03
6 | COR-L 105 | 0.792 | 0.718 | 0.777 | 0.822 | 0.622 | 0.589 | 0.607 | 0.64 | 0.864 | 0.735 | 0.784 | 0.665 | 0.659 | 0.876 | 0.839 | 0.661 | 0.896 | 0.758 | 0.96
7 | LCLC-103H | 1.06 | 1.03 | 1.01 | 0.927 | 0.815 | 0.479 | 0.392 | 0.45 | 0.418 | 0.508 | 1.07 | 0.862 | 0.845 | 1.14 | 1.13 | 1.15 | 1.06 | 1.17 | 0.936
8 | NCI-H3122 | 0.952 | 1.01 | 1.06 | 1.03 | 0.738 | 1.11 | 0.849 | 1.03 | 1.03 | 1.01 | 0.0579 | 0.0537 | 0.115 | 0.271 | 0.253 | 0.259 | 0.988 | 0.894 | 1.11
9 | CAL-12T | 0.956 |  |  | 0.992 | 1.09 | 0.378 | 0.615 | 0.585 | 0.616 | 0.597 | 0.38 | 0.251 | 0.354 | 0.708 | 0.417 | 0.477 | 0.719 | 0.499 | 0.542
10 | NCI-H1355 | 1.5 | 1.15 | 1.17 | 1.18 | 1.2 | 0.379 |  | 0.378 | 0.375 | 0.337 | 0.781 | 0.756 | 0.759 | 1.22 | 0.98 | 0.935 | 0.762 | 0.65 | 0.598
11 | NCI-H650 | 0.662 | 0.635 | 0.703 | 0.764 | 0.694 | 0.473 | 0.471 | 0.492 | 0.483 | 0.501 | 1.01 | 0.854 | 0.853 | 0.737 | 0.559 | 0.782 | 0.739 | 0.761 | 0.938
12 | NCI-H661 | 0.817 | 0.738 | 0.84 | 0.829 | 0.935 | 0.853 | 0.597 | 0.695 | 0.72 | 0.701 | 0.89 | 0.866 | 0.821 | 0.99 | 0.965 | 0.933 | 0.688 | 0.515 | 0.561
13 | NCI-H322M | 1.17 | 1.12 | 1.19 | 1.32 | 1.22 | 0.535 | 0.527 | 0.532 | 0.571 | 0.503 | 1.13 | 0.946 | 1 | 0.981 | 0.835 | 0.743 | 1.09 | 0.915 | 0.999
14 | HCC-44 | 0.879 | 0.914 | 0.926 | 0.882 | 0.711 | 0.371 | 0.441 | 0.434 | 0.402 | 0.387 |  | 1.13 | 1.08 | 0.926 | 0.749 | 0.699 | 0.717 | 0.705 | 0.658
15 | PC-3 [JPC-3] | 0.936 | 0.82 | 0.965 | 0.865 | 0.805 | 0.851 | 0.718 | 0.787 | 0.681 | 0.741 | 0.654 | 0.717 | 0.679 | 1.07 | 0.907 | 0.927 | 0.984 | 0.887 | 0.899
16 | HCC-827 | 0.995 | 0.907 | 1.13 | 1.02 | 1.04 | 0.855 | 0.59 | 0.808 | 0.8 | 0.8 | 0.439 | 0.589 | 0.573 | 0.932 | 0.917 | 0.95 | 1.03 | 0.954 | 0.938
17 | NCI-H1666 | 0.848 | 0.734 | 0.713 | 0.765 | 0.598 | 0.747 | 0.73 | 0.749 | 0.817 | 0.853 | 0.831 | 0.84 | 0.889 | 0.96 | 0.795 | 0.82 | 0.788 | 0.703 | 0.78
18 | NCI-H2126 | 1.14 | 1.18 | 1.12 | 1.05 | 1 | 0.627 | 0.597 | 0.707 | 0.708 | 0.727 | 0.994 | 0.83 | 0.831 | 1.08 | 1.02 | 1.03 | 0.783 | 0.718 | 0.739
19 | LXF-289 | 0.992 | 0.928 | 1.05 | 0.95 | 0.929 | 0.801 | 0.778 | 0.681 | 0.739 | 0.63 | 0.858 | 0.559 | 0.641 | 0.793 | 0.721 | 0.689 | 0.929 | 0.795 | 0.821
20 | NCI-H1734 | 0.956 | 0.763 | 0.866 | 0.885 | 0.597 | 0.653 | 0.582 | 0.529 | 0.615 | 0.514 | 0.191 | 0.217 | 0.204 | 0.789 | 0.728 | 0.649 | 1.04 | 0.883 | 0.932
21 | NCI-H2087 | 0.726 | 0.843 | 0.729 | 0.947 | 0.738 | 0.534 | 0.462 | 0.529 | 0.539 | 0.538 | 0.17 | 0.146 | 0.205 | 1.11 | 0.841 | 0.918 | 0.921 | 0.95 | 0.961
22 | NCI-H460 | 1.37 |  | 1.1 | 1.34 | 0.776 | 0.613 | 0.492 | 0.654 | 0.835 | 0.605 | 0.034 | 0.0266 | 0.0324 | 0.824 | 1.03 | 1 | 1.55 | 0.829 | 0.695
23 | A-427 | 0.935 | 1.04 | 0.942 | 0.906 | 0.478 | 0.459 | 0.457 | 0.423 | 0.451 | 0.497 | 0.919 | 0.774 | 1.05 | 0.929 | 0.793 | 0.872 | 1.04 | 1.03 | 1.12
